According to article PMC5929447 (Oncotarget, 2018):
Read-outs that look alike come from different tables or passages of the source.

What was measured:
RS4;11 xenograft = RS4;11 xenograft efficacy; type: in vivo, mice; conditions: for Mean TV change: day 17, mean ± s.e.m.; for % T/C: day 17 post treatment start
Protocol: Experiments were performed in SCID/beige female mice from Charles River Laboratories, Massachusetts, USA. Animals, approximately 7-8 weeks of age at the start of the treatment were allowed to acclimate in animal facility with access to food and water ad libitum for 3 days prior to manipulation. Animals were handled in accordance with IACUC regulations and guidelines for experiments performed in the USA and with European and French regulation for the protection of vertebrate animals for experiments performed in France. Animal well-being and behavior, including grooming and ambulation were monitored at least once a day. General health of mice was monitored and mortality recorded daily. Any moribund animals were sacrificed. RS4;11 Acute Lymphoblastic Leukemia cell lines was obtained from ATCC. Toledo (Diffuse Large B-Cell Lymphoma) human cell lines were obtained internally through Bioresources and the Novartis-Cancer Cell Line Encyclopedia. Cells were free of Mycoplasma and murine viral contamination in the IMPACT VIII PCR assay panel ([…] laboratories INC, Westbrook, ME, USA). […] Cells were resuspended in a 1:1 mixture of cold DPBS (Dulbecco's Phosphate-Buffered Saline) and Matrigel^TM (Becton-Dickinson #354234) at a concentration of 3 × 10^7 cells/ml for Toledo cells, and of 1 × 10^7 cells/ml for RS4;11 cells. […] Body weights were recorded and tumors were measured with digital calipers twice to three times a week. Tumor volume was calculated using the formula: length × width^2/2. Percent changes in body weights was calculated as (BWcurrent - BWinitial)/(BWinitial) × 100. Data is presented as percent body weight change from the day of treatment initiation. When tumors reached approximately 200 mm^3 for efficacy studies or 300 mm^3 for pharmacodynamic studies, mice were randomized. […] Mice were treated via oral gavage at 10 ml/kg with the doses and schedules described in the figure. […] Regression = 100 × ΔT/Tinitial if ΔT < 0 where: T = mean tumor burden of the drug-treated group on the final day of the study; ΔT = mean tumor burden of the drug-treated group on the final day of the study - mean tumor burden of the drug-treated group on initial day of dosing; Tinitial = mean tumor burden of the drug-treated group on initial day of dosing; C = mean tumor burden of the control group on the final day of the study; and ΔC = mean tumor burden of the control group on the final day of the study - mean tumor burden of the control group on initial day of dosing. If the tumor volume was less than 14 mm^3 for more than 3 consecutive measurements, animals were considered in complete regression (CR).

BCL-XL/BAX complex = BCL-XL/BAX complex (Homo sapiens, UniProt Q07817); assay: Co-immunoprecipitation in BCL-XL-overexpressing HeLa cells; conditions: 2 h
Protocol: Effecten reagent (Qiagen), with 3xFlag-tagged BCL-XL
24 h later, transfected Hela and RS4;11
were put under neomycin selection (800 µg/ml, Invitrogen) were then subjected to immunoprecipitation with anti-

RS4;11 cell line = assay: CellTiter-Glo cell viability, RS4;11; type: cell-based; conditions: Homo sapiens, 72 h of treatment
Protocol: Cells were seeded into 96-well plates and treated at 8 points with 1:2 serial dilution of compounds. Cell viability was assessed and assayed for viability using CellTiter-Glo reagent (Promega) following the manufacturer's instructions. Plates were read using Tecan luminescence plate reader. Results were normalized to the viability of cells without compounds (control wells). The IC50 values were calculated using nonlinear regression algorithms in XCell software.

[1] = system: BAX-deficient RS4;11 cells; assay: Viability of RS4;11 cells transduced with shRNA BAX; type: cell-based; conditions: 72 h
[2] = system: primary Chronic Lymphocytic Leukemia cells; assay: Apoptosis (annexin V/PI flow cytometry) in primary CLL cells; type: cell-based; conditions: Homo sapiens, CLL cell, 4 h
Protocol: (§1) Peripheral blood samples from CLL patients were obtained with informed patient consent and local ethical committee approval (UHL-09723). […] Interphase fluorescence in situ hybridization (FISH) was performed for detection of 17p13 deletion. Mantle cell lymphoma (MCL) primary cells were obtained after informed consent from MCL patients treated at the department of clinical hematology from the University Hospital of Nantes, France. Peripheral MCL cells from blood or pleural effusion, were purified after Ficoll-Hypaque separation with immuno-magnetic anti-CD19 beads (Miltenyi, Paris, France). Primary cells were cultured in RPMI-1640 supplemented with 10% FCS and 2 mM glutamine. Human platelets were isolated from citrate blood donated by healthy volunteers. Washed platelets were cultured in Hepes-buffered saline (HBS, 10 mM Hepes, 150 mM NaCl, 5 mM KCl, 1 mM MgSO4, pH 7.4). […] EC50 values were calculated using GraphPadPrism (non-linear fit, sigmoidal dose response, variable slope). […] Cell death was assessed in the CD19+ primary MCL cells by annexinV-FITC staining combined with an analysis of altered cellular morphology (lower FCS). Fluorescence was analyzed on FACSCalibur.

[3] = system: primary Mantle Cell Lymphoma cells; assay: Apoptosis (annexin V flow cytometry) in primary MCL cells; type: cell-based; conditions: Homo sapiens, 24 h
Protocol: as §1

[4] = 100 mg/kg oral daily for 7 days

BCL-XL/BAX complex, sequence (Q07817 whole entry, one chain of several): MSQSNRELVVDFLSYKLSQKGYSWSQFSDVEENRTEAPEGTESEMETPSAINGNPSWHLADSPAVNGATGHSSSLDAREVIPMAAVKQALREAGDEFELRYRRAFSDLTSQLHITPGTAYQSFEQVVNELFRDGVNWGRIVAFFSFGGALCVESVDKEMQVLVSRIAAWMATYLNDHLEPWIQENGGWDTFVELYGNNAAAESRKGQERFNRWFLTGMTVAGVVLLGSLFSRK

With `O=C(c1cc(-c2cc3c(cc2C(=O)N2Cc4ccccc4C[C@H]2CN2CCOCC2)OCO3)n2c1CCCC2)N(c1ccccc1)c1ccc(O)cc1` [S55746] the “Mean TV change” value (RS4;11 xenograft; 25 mg/kg oral daily for 7 days) was 782.38 ± 107.32 mm3, the “% T/C” value (RS4;11 xenograft; 25 mg/kg oral daily for 7 days) was 67.1 % T/C and the “Mean TV change” value (RS4;11 xenograft; 50 mg/kg oral daily for 7 days) was 190.50 ± 76.72 mm3. For the same compound, the “% T/C” value (RS4;11 xenograft; 50 mg/kg oral daily for 7 days) was 16.3 % T/C, the complete regression (RS4;11 xenograft; [4]) was “complete regression observed in all animals” and the “Mean TV change” value (RS4;11 xenograft; [4]) was “–98.13 ± 11.62 mm3”. For the same compound, the “effect on BCL-XL/BAX complex in BCL-XL-overexpressing HeLa cells” value (BCL-XL/BAX complex) was “without any significant effect on the BCL-XL/BAX complex”, the IC50 (RS4;11 cell line) was 71.6 nM and the “reduction of sensitivity of BAX-deficient versus control RS4;11” value [1] was “≈ 50 fold”. The IC50 ([1]; Homo sapiens, RS4-11, shRNA BAX) was 2700 nM, the EC50 ([2]; 7 patients, 4 hours of treatment, read-out: EC50 apoptosis in primary CLL cells, range over patients) was 4.4 to 47.2 nM and the EC50 ([2]; read-out: EC50 S55746 primary CLL cells, patient CLL1, p17 del No, 4 h) was 47.2 nM. For the same compound, the EC50 ([2]; read-out: EC50 S55746 primary CLL cells, patient CLL2, p17 del No, 4 h) was 13.8 nM, the EC50 ([2]; read-out: EC50 S55746 primary CLL cells, patient CLL3, p17 del Yes, 4 h) was 13.7 nM and the EC50 ([2]; read-out: EC50 S55746 primary CLL cells, patient CLL4, p17 del No, 4 h) was 12 nM. It also gave an EC50 ([2]; read-out: EC50 S55746 primary CLL cells, patient CLL5, p17 del No, 4 h) of 9.9 nM, an EC50 ([2]; read-out: EC50 S55746 primary CLL cells, patient CLL6, p17 del Yes, 4 h) of 7.8 nM and an EC50 ([2]; read-out: EC50 S55746 primary CLL cells, patient CLL7, p17 del No, 4 h) of 4.4 nM. For the same compound, the EC50 ([3]; 8 patients, 24 h of treatment, read-out: EC50 apoptosis in primary MCL cells, range over patients) was 2.5 to 110 nM, the EC50 ([3]; read-out: EC50 S55746 primary MCL cells, patient MCL2, 24 h) was 15 nM and the EC50 ([3]; read-out: EC50 S55746 primary MCL cells, patient MCL3, 24 h) was 12 nM. The EC50 ([3]; read-out: EC50 S55746 primary MCL cells, patient MCL4, 24 h) was 12 nM, the EC50 ([3]; read-out: EC50 S55746 primary MCL cells, patient MCL5, 24 h) was 5 nM and the EC50 ([3]; read-out: EC50 S55746 primary MCL cells, patient MCL6, 24 h) was 4 nM. For the same compound, the EC50 ([3]; read-out: EC50 S55746 primary MCL cells, patient MCL7, 24 h) was 3 nM and the EC50 ([3]; read-out: EC50 S55746 primary MCL cells, patient MCL8, 24 h) was 2.5 nM.
